Data reported in US8921320B2, “Targeted osmotic lysis of cancer cells” (Board of Supervisors of Louisiana State University and …, priority 2011, dated 2014).
Entries after “also recorded” stand apart in the source; their conditions may differ. Like-named read-outs stand apart in the source and are kept apart here.

Columns and labels:
[1] = tested on: LNCaP (prostate cancer); assay: Time to lysis of cultured cancer cells (drug + electrical stimulation); type: cell-based; details: 2 V DC, 200 pulses per second, 5 min limit
Source text: (§1) We also used two cardiac glycoside drugs that are currently FDA-approved for clinical use, ouabain and digoxin, for in vitro lysis of multiple lines of carcinoma. […] Cell lines were: MDA-MB-231 (breast cancer); MCF-7 (breast cancer; ATCC# HTB-22); LNCaP (prostate cancer; ATCC# CRL-1740); DU145 (prostate cancer; ATCC# HTB-81); MCA-38 (colon cancer; from Dr. Augusto Ochoa); A549 (non-small cell lung cancer; ATCC# CCL-185); and 3LL (non-small cell lung cancer; from Dr. Augusto Ochoa, Louisiana State University, New Orleans, La.). Cells were plated in 35 mm diameter culture dishes in Dulbecco's Modified Eagle's Medium (DMEM, Gibco) supplemented with 4 mM L-glutamine, 1 mM sodium pyruvate and 10 μM insulin for 18-24 hr. […] A 2 V DC current, 200 pulses per second was passed across individual cells using a Grass Model SD9 stimulator (Grass Instruments, Quincy, Mass.) through platinum wire electrodes held in place with a David Kopf Instrument micromanipulator (Tarzana, Calif.), and the time to lysis was measured. Video recordings of representative experiments were prepared digitally using a Canon Vixia HFM400 camera attached to Leica DM IL microscope, and are available upon request. […] All of the cancer cells lysed, with the time to lysis faster for the cells with the largest known expression of VGSCs.

[2] = tested on: DU145 (prostate cancer); assay: as above; type: cell-based; details: 2 V DC, 200 pulses per second, 5 min limit
Source text: as §1

[3] = tested on: MDA-MB-231 (breast cancer); assay: as above; type: cell-based; details: 2 V DC, 200 pulses per second, 5 min limit
Source text: as §1

[4] = tested on: MCA-38 (colon cancer); assay: as above; type: cell-based; details: 2 V DC, 200 pulses per second, 5 min limit
Source text: as §1

[5] = tested on: 3LL (non-small cell lung cancer); assay: as above; type: cell-based; details: 2 V DC, 200 pulses per second, 5 min limit
Source text: as §1

[6] = tested on: MDA-MB-231 breast cancer cells; type: cell-based
Procedure: The effectiveness of TOL has been tested using an in vitro model for breast cancer. MDA-MB-231 breast cancer cells were cultured to complete confluency in 96-well plates. These breast cancer cells are known to over-express VGSCs by 1400-fold. These cells were exposed to Dulbecco's modified Eagle's medium (DMEM), or the cardiac glycoside drugs (known sodium pump inhibitors) ouabain (10 pM-100 nM; Sigma Chemical Co., St. Louis, Mo.) or digitoxin (100 pM-1 μM; Sigma) dissolved in DMEM for 30 min. After exposure to the sodium pump inhibitors, an electric current (0 V, 100 mV, or 1 V DC) was passed across the cells using an anode and a cathode placed touching the bottom of each well or an etched circuit in the bottom of the plate. The electric current was generated using a Grass Model SD9 stimulator (Grass Instruments, Quincy, Mass.) through platinum wire electrodes.
Initially we cultured MDA-MB-231 (ATCC, Manassas, Va., cat #HTB-26) breast cancer cells to complete confluency in 96-well plates. These cells over-express VGSCs by 100-fold. […] An electric current (0 V, 100 mV, or 1 V DC) was passed across the cells by means of an anode and a cathode placed touching the bottom of each well as in Example 1.

[7] = tested on: MDA-MB-231 tumors; assay: Tumor growth following a single TOL treatment; type: in vivo, J/Nu mice; details: single treatment Day 0: ouabain 10 mg/kg + 2×1 min electrical stimulation; cross-sectional area followed three weeks; p<0.01
Procedure: When vascularized tumors became apparent, mice were divided into 4 treatment groups: Saline-No stimulation; Saline-Stimulation (2×1 min electrical stimulation); Ouabain (10 mg/kg)-No stimulation; and Ouabain (10 mg/kg)-Stimulation (2×1 min electrical stimulation). Only a single treatment was given for each treatment group on Day 0 of FIG. 2. Tumor cross-sectional area was then measured with calipers every-other day for three weeks. The tumor growth was expressed as a percent pre-treatment size and plotted against time.

[8] = tested on: MDA-MB-231 breast cancer cells; assay: cells; type: cell-based; details: alamar blue added after 1 hr, read 4 hr later
Procedure: The effect of the combination of ouabain (a sodium pump inhibitor) and veratridine (a sodium […]) on viability of cultured MDA-MB-231 and MCF-7 breast cancer cells was assessed. The former cells over-express VGSCs by more than 1000-fold, whereas the latter cells over-express VGSCs by 100-fold (24). MDA-MB-231 cells were cultured in DMEM, whereas MCF-7 cells were cultured in DMEM+10 μM insulin. After centrifugation, both cell lines were re-suspended in DMEM+10 μM insulin to assure normal functioning of Na^+, K^+-ATPase, and approximately 5000 cells were added to each well in a 96-well plate in a volume of 100 μl. After 18 hr, the media was aspirated, and the cells were treated with 100 μl DMEM+10 μM insulin (“media”) alone, media+100 nM ouabain, media+30 μM veratridine, or media+100 nM ouabain+30 μM veratridine. After 1 hr, […] alamar blue was added to each well, and cell viability determined 4 hr after this addition. All determinations were obtained in quadruplicate, and the experiment repeated three times. […] Veratridine alone reduced viability of MDL-MB-231 cells by 15% (FIG. 1) compared to media alone-treated cells. In this initial experiment, ouabain combined with veratridine produced a 30% reduction in cell viability. In MCF-7 cells, none of the treatments affected cell viability (Data not shown). […]

[9] = tested on: MDA-MB-231 tumors; assay: In vivo TOL in breast cancer xenografts, tumor histology (hematoxylin and eosin); design: species or system nude (J-NU) mice
Procedure: As an in vivo model of cancer, MDA-MB-231 cells were suspended in matrigel and injected subcutaneously into the backs of 5 nude (J-NU) mice. Each mouse developed 0.75-1.2 cm tumors in 3-5 weeks. The mice were then injected subcutaneously with 10 mg/kg ouabain or saline. After 30 min, the mice were anesthetized with 4% isoflurane, and the tumors exposed through a small incision in the skin. An anode and a cathode were inserted into each tumor, and a train of 120 1 V DC pulses (10 msec, 2 Hz for 1 min) was delivered through the anode and cathode as discussed above. A total of 11 tumors were tested. Three tumors were from mice treated with ouabain and electrically stimulated (O-ES experimental). Of the rest, two were from a mouse treated with saline and not electrically stimulated (S-NS control), three were from mice treated with ouabain but not electrically stimulated (O-NS control), and three were from mice treated with saline and electrically stimulated (S-ES control). The electrical stimulation was repeated 15 and 30 min later. One day later, mice were sacrificed with an overdose of Nat pentobarbital, perfused with 4% buffered paraformaldehyde, and the tumors removed. The tumors were sectioned at 5 μm and stained with hematoxylin and eosin. […] The other two mice in the O-ES group had tumors that were not highly vascularized, and thus the ouabain could not efficiently distribute to the tumor cells.
As an in vivo model of cancer, we injected 4 million MDA-MB-231 cells, suspended in matrigel, subcutaneously into the backs of 5 nude (J-NU) mice. Each mouse developed 0.75-1.2 cm tumors in 3-5 weeks. The mice were injected subcutaneously with 10 mg/kg ouabain or saline and then after 30 min anesthetized with 4% isoflurane. The tumors of the mice were exposed through a small incision in the skin. An anode and a cathode were inserted into each tumor, and a train of 120 1 V DC pulses (10 msec, 2 pulses per second for 1 min) using the Grass SD9 stimulator was delivered through a copper anode and cathode. Some controls received no stimulation. A total of 11 tumors were tested. Three tumors were from mice treated with 10 mg/kg s.c. ouabain and electrically stimulated (O-ES experimental). […]
This experiment was repeated using 10 mice (2 per control group and 4 in the experimental group.) Four million MDA-MB-231 cells suspended in 50% matrigel were injected s.c. in J/Nu mice, and tumors allowed to grow until visibly vascularized (reddish in appearance.) Stimulation parameters were 10 V DC, 1 msec pulses @ 200 pulses per second. […] One day later, animals were sacrificed, perfused, tumors removed, and prepared for hematoxylin and eosin staining Stained sections from each of the tumors were evaluated by a trained histologist.

[10] = tested on: muscle, peripheral nerves, heart, and brain; type: in vivo, J/Nu mice
Procedure: As an in vivo model of cancer, MDA-MB-231 cells were suspended in matrigel and injected subcutaneously into the backs of 5 nude (J-NU) mice. Each mouse developed 0.75-1.2 cm tumors in 3-5 weeks. The mice were then injected subcutaneously with 10 mg/kg ouabain or saline. After 30 min, the mice were anesthetized with 4% isoflurane, and the tumors exposed through a small incision in the skin. An anode and a cathode were inserted into each tumor, and a train of 120 1 V DC pulses (10 msec, 2 Hz for 1 min) was delivered through the anode and cathode as discussed above. A total of 11 tumors were tested. Three tumors were from mice treated with ouabain and electrically stimulated (O-ES experimental). Of the rest, two were from a mouse treated with saline and not electrically stimulated (S-NS control), three were from mice treated with ouabain but not electrically stimulated (O-NS control), and three were from mice treated with saline and electrically stimulated (S-ES control). The electrical stimulation was repeated 15 and 30 min later. One day later, mice were sacrificed with an overdose of Nat pentobarbital, perfused with 4% buffered paraformaldehyde, and the tumors removed. The tumors were sectioned at 5 μm and stained with hematoxylin and eosin. […]

[11] = tested on: MCF-7 (breast cancer); assay: Time to lysis of cultured cancer cells (drug + electrical stimulation); type: cell-based; details: 100 nM ouabain, 2 V DC, 200 pulses per second, 5 min limit
Procedure: (§2) Cell lines were: MDA-MB-231 (breast cancer); MCF-7 (breast cancer; ATCC# HTB-22); LNCaP (prostate cancer; ATCC# CRL-1740); DU145 (prostate cancer; ATCC# HTB-81); MCA-38 (colon cancer; from Dr. Augusto Ochoa); A549 (non-small cell lung cancer; ATCC# CCL-185); and 3LL (non-small cell lung cancer; from Dr. Augusto Ochoa, Louisiana State University, New Orleans, La.). Cells were plated in 35 mm diameter culture dishes in Dulbecco's Modified Eagle's Medium (DMEM, Gibco) supplemented with 4 mM L-glutamine, 1 mM sodium pyruvate and 10 μM insulin for 18-24 hr. […] A 2 V DC current, 200 pulses per second was passed across individual cells using a Grass Model SD9 stimulator (Grass Instruments, Quincy, Mass.) through platinum wire electrodes held in place with a David Kopf Instrument micromanipulator (Tarzana, Calif.), and the time to lysis was measured. Video recordings of representative experiments were prepared digitally using a Canon Vixia HFM400 camera attached to Leica DM IL microscope, and are available upon request.

[12] = tested on: A549 (non-small cell lung cancer); assay: as above; type: cell-based; details: 100 nM ouabain, 2 V DC, 200 pulses per second, 5 min limit
Procedure: as §2

## C[C@H]1O[C@@H](O[C@H]2[C@@H](O)C[C@H](O[C@H]3[C@@H](O)C[C@H](O[C@H]4CC[C@@]5(C)[C@H](CC[C@@H]6[C@@H]5C[C@@H](O)[C@]5(C)[C@@H](C7=CC(=O)OC7)CC[C@]65O)C4)O[C@@H]3C)O[C@@H]2C)C[C@H](O)[C@@H]1O [digoxin]
[1]; 1 μM digoxin
  Mean time-to-lysis ± SEM, Digoxin + Stimulation: 122.9 ± 3.13 s
[2]; 1 μM digoxin
  Mean time-to-lysis ± SEM, Digoxin + Stimulation: 111.3 ± 9.7 s
[3]; 1 μM digoxin 15-45 min
  Mean time-to-lysis ± SEM, Digoxin + Stimulation: 68.39 ± 7.31 s
[4]; 1 μM digoxin
  Mean time-to-lysis ± SEM, Digoxin + Stimulation: 122.7 ± 9.02 s
[5]; 1 μM digoxin
  Mean time-to-lysis ± SEM, Digoxin + Stimulation: 163.75 ± 8.27 s
[6]
  cancer cell death in wells: every cancer cell died; also recorded: all cancer cells died

## C[C@@H]1O[C@@H](O[C@H]2C[C@@H](O)[C@]3(CO)[C@H]4[C@H](O)C[C@]5(C)[C@@H](C6=CC(=O)OC6)CC[C@]5(O)[C@@H]4CC[C@]3(O)C2)[C@H](O)[C@H](O)[C@H]1O [ouabain]
[7]
  tumor size smaller than in the three other groups: 70%
[1]; 100 nM ouabain
  Mean time-to-lysis ± SEM, Ouabain + Stimulation: 143.1 ± 5.78 s
[2]; 100 nM ouabain
  Mean time-to-lysis ± SEM, Ouabain + Stimulation: 81.6 ± 3.96 s
[3]; 100 nM ouabain 15-45 min
  Mean time-to-lysis ± SEM, Ouabain + Stimulation: 69.3 ± 4.82 s
[4]; 100 nM ouabain
  Mean time-to-lysis ± SEM, Ouabain + Stimulation: 74.0 ± 1.0 s
[5]; 100 nM ouabain
  Mean time-to-lysis ± SEM, Ouabain + Stimulation: 115.9 ± 3.33 s
[8]; 100 nM ouabain alone
  change in cell viability compared to media-only controls: no decrease in cell viability
[9]; 10 mg/kg s.c. ouabain + electrical stimulation (1 V DC), the other two mice of the O-ES group
  lysis in tumors that were not highly vascularized: no lysis was seen
[9]; 10 mg/kg s.c. ouabain + electrical stimulation (120 1 V DC pulses, repeated 15 and 30 min later), one of three O-ES tumors, one day later
  tumor cell death after treatment: 80%
[9]; 10 mg/kg s.c. ouabain, no stimulation, three tumors, one day later
  cell lysis in tumors, ouabain without electrical stimulation (O-NS control): None of the tumors in any of the other three treatments showed any sign of cell lysis; also recorded: None of the tumors in any of the three control treatments showed any sign of cell lysis
[9]; repeat experiment, 10 mice, 2 per control group, 10 mg/kg s.c. ouabain
  lysis in control tumors (incl. ouabain without stimulation): none of the controls showed any sign of lysis
[10]; 10 mg/kg ouabain s.c., tissues electrically stimulated after 30 min, one day later
  lysis in healthy muscle, peripheral nerves, heart, and brain: None of these tissues showed signs of lysis
[10]; 10 mg/kg s.c. ouabain + electrical stimulation (1 V DC), same mouse as the tumor with 80% cell death
  cell death in normal muscle taken from the base of the tumor: no sign of cell death
[6]; ≧1 nM ouabain 30 min, then 100 mV or 1 V DC electric current, 6 of 24 wells (ouabain or digoxin)
  cancer cell death in wells: every cancer cell died; also recorded: all cancer cells died
[11]
  Mean time-to-lysis ± SEM, Ouabain + Stimulation: 170.5 ± 15.35 s
[12]
  Mean time-to-lysis ± SEM, Ouabain + Stimulation: 149.9 ± 11.70 s

## COc1ccc(C(=O)O[C@H]2CC[C@@]3(C)[C@@H]4CC[C@H]5[C@]6(O)C[C@H](O)[C@@]7(O)[C@@H](CN8C[C@@H](C)CC[C@H]8[C@@]7(C)O)[C@]6(O)C[C@@]53O[C@]24O)cc1OC [veratridine]
[8]; Homo sapiens, 30 μM veratridine alone, read-out: reduction in cell viability compared to media alone
  cytotoxicity at 30 µM: 15%
